According to patent US12173007B2, “Imidazopyridazine IL-17 inhibitor compounds” (Janssen Pharmaceutica NV, priority 2021, dated 2024):

Test system: IL-17A-induced G-CSF production in human normal keratinocyte (NHK)
Test: NHK assay: IL-17A-induced G-CSF production in normal human keratinocytes
Format: cell-based
Details: Homo sapiens, Keratinocyte, 24 h, IL-17A 5 ng/mL, G-CSF by HTRF, average if tested more than once
Method: IL-17A acts directly on keratinocytes through binding to dimeric receptor IL-17RA/RC and drives the production of a number of inflammatory mediators known to be elevated in psoriasis lesional tissue. IL-17A small molecule inhibitors that block the IL-17A to interact with IL-17R would inhibit the IL-17A signaling in its targeted cells such as keratinocytes. The compound functional activity is evaluated for its impact on IL-17A-induced G-CSF production in human normal keratinocyte (NHK).
Adult normal human keratinocytes are cultured in keratinocyte growth medium (Lonza) in a flask till reaching ˜90% confluence, then cells are transferred to a 384-well plate at density of 3000-4000 cell/well. Recombinant human IL-17A (Gibco PHC9174) is pre-incubated with titrated compound or DMSO for 1 h at rt then added to the cell culture plate. The final concentration of IL-17A is 5 ng/mL and DMSO is 0.2%, in the culture containing 5% FBS. Cells are cultured/treated for 24 h at 37° C. Supernatants are collected and G-CSF production is measured through HTRF technology using Human G-CSF Kit (CisBio). G-CSF concentration was extrapolated from the standard curve and IC50 is determined using GraphPad Prism. Cell viability is also evaluated using CellTiter-Glo kit (Promega) and effect of compound on cell viability is compared to DMSO control.

Row | Molecule | IC50 [µM]
1 | COC[C@H](c1cnn2cc([C@@H](NC(=O)c3nonc3C3CC3)[C@H]3[C@@H]4CC(F)(F)C[C@@H]43)nc2c1)N1CC(F)(F)CNC1=O (relative stereo) [Example 51, 4-Cyclopropyl-N—((S*)-(7-((S)-1-(5,5-difluoro-2-oxotetrahydropyrimidin-1(2H)-yl)-2-methoxyethyl)imidazo[1,2-b]pyridazin-2-yl)((1R,5S,6r)-3,3-difluorobicyclo[3.1.0]hexan-6-yl)methyl)-1,2,5-oxadiazole-3-carboxamide] | < 0.05
2 | COC[C@H](c1cnn2cc([C@H](NC(=O)c3nonc3C3CC3)[C@@H]3CCC(F)(F)C3)nc2c1)N1CC(F)(F)CNC1=O (relative stereo) [Example 52, 4-Cyclopropyl-N—((R*)-(7-((S)-1-(5,5-difluoro-2-oxotetrahydropyrimidin-1(2H)-yl)-2-methoxyethyl)imidazo[1,2-b]pyridazin-2-yl)((R*)-3,3-difluorocyclopentyl)methyl)-1,2,5-oxadiazole-3-carboxamide] | < 0.05
3 | COC[C@H](c1cnn2cc([C@@H](NC(=O)c3nonc3C)[C@@H](C)OC(C)(C)C(F)(F)F)nc2c1)N1CC(F)(F)CNC1=O (relative stereo) [Example 60, N-((1R*,2R*)-1-(7-((S)-1-(5,5-Difluoro-2-oxotetrahydropyrimidin-1(2H)-yl)-2-methoxyethyl)imidazo[1,2-b]pyridazin-2-yl)-2-((1,1,1-trifluoro-2-methylpropan-2-yl)oxy)propyl)-4-methyl-1,2,5-oxadiazole-3-carboxamide] | < 0.05
4 | CCOCC(c1cnn2cc([C@@H](NC(=O)c3nonc3C)C3CCC(F)(F)CC3)nc2c1)N1CC(F)(F)CNC1=O (single isomer, unassigned) [Example 35, N—((S)-(7-((S*)-1-(5,5-Difluoro-2-oxotetrahydropyrimidin-1(2H)-yl)-2-ethoxyethyl)imidazo[1,2-b]pyridazin-2-yl)(4,4-difluorocyclohexyl)methyl)-4-methyl-1,2,5-oxadiazole-3-carboxamide] | < 0.05
5 | CCOCC(c1cnn2cc([C@@H](NC(=O)c3nonc3C3CC3)C3CCC(F)(F)CC3)nc2c1)N1CC(F)(F)CNC1=O (single isomer, unassigned) [Example 36, 4-Cyclopropyl-N—((S)-(7-((S*)-1-(5,5-difluoro-2-oxotetrahydropyrimidin-1(2H)-yl)-2-ethoxyethyl)imidazo[1,2-b]pyridazin-2-yl)(4,4-difluorocyclohexyl)methyl)-1,2,5-oxadiazole-3-carboxamide] | < 0.05
6 | COC[C@H](c1cnn2cc(C(CCC(C)(C)C(F)(F)F)NC(=O)c3nonc3C3CC3)nc2c1)N1CC(F)(F)CNC1=O (single isomer, unassigned) [Example 46, 4-Cyclopropyl-N—((S*)-1-(7-((S)-1-(5,5-difluoro-2-oxotetrahydropyrimidin-1(2H)-yl)-2-methoxyethyl)imidazo[1,2-b]pyridazin-2-yl)-5,5,5-trifluoro-4,4-dimethylpentyl)-1,2,5-oxadiazole-3-carboxamide] | < 0.05
7 | Cc1nonc1C(=O)N[C@H](c1cn2ncc([C@@H](C3CC3)N3CCC(C(F)(F)F)NC3=O)cc2n1)C1CCC(F)(F)CC1 (single isomer, unassigned) [Example 48, N—((S)-(7-((R)-Cyclopropyl((S*)-2-oxo-4-(trifluoromethyl)tetrahydropyrimidin-1(2H)-yl)methyl)imidazo[1,2-b]pyridazin-2-yl)(4,4-difluorocyclohexyl)methyl)-4-methyl-1,2,5-oxadiazole-3-carboxamide] | > 0.1
8 | Cc1nonc1C(=O)N[C@H](c1cn2ncc(C(COC3CCC3)N3CC(F)(F)CNC3=O)cc2n1)C1CCC(F)(F)CC1 (single isomer, unassigned) [Example 57, N—((S)-(7-((S*)-2-Cyclobutoxy-1-(5,5-difluoro-2-oxotetrahydropyrimidin-1(2H)-yl)ethyl)imidazo[1,2-b]pyridazin-2-yl)(4,4-difluorocyclohexyl)methyl)-4-methyl-1,2,5-oxadiazole-3-carboxamide] | < 0.05
9 | Cc1nonc1C(=O)N[C@H](c1cn2ncc(C(COC(C)C)N3CC(F)(F)CNC3=O)cc2n1)C1CCC(F)(F)CC1 (single isomer, unassigned) [Example 58, N—((S)-(7-((S*)-1-(5,5-Difluoro-2-oxotetrahydropyrimidin-1(2H)-yl)-2-isopropoxyethyl)imidazo[1,2-b]pyridazin-2-yl)(4,4-difluorocyclohexyl)methyl)-4-methyl-1,2,5-oxadiazole-3-carboxamide] | < 0.05
10 | CC(C)n1nccc1C(=O)N[C@H](c1cn2ncc([C@@H](COC3CC3)N3CC(F)(F)CNC3=O)cc2n1)C1CCC(F)(F)CC1 [Example 37, N—((S)-(7-((S)-2-Cyclopropoxy-1-(5,5-difluoro-2-oxotetrahydropyrimidin-1(2H)-yl)ethyl)imidazo[1,2-b]pyridazin-2-yl)(4,4-difluorocyclohexyl)methyl)-1-isopropyl-1H-pyrazole-5-carboxamide] | < 0.05
11 | Cc1nocc1C(=O)N[C@H](c1cn2ncc([C@@H](COC3CC3)N3CC(F)(F)CNC3=O)cc2n1)C1CCC(F)(F)CC1 [Example 38, N—((S)-(7-((S)-2-Cyclopropoxy-1-(5,5-difluoro-2-oxotetrahydropyrimidin-1(2H)-yl)ethyl)imidazo[1,2-b]pyridazin-2-yl)(4,4-difluorocyclohexyl)methyl)-3-methylisoxazole-4-carboxamide] | < 0.05
12 | COC[C@H](c1cnn2cc([C@H](CC(C)(C)C(F)(F)F)NC(=O)c3nonc3C3CC3)nc2c1)N1CC(F)(F)CNC1=O [Example 41, 4-Cyclopropyl-N—((S)-1-(7-((S)-1-(5,5-difluoro-2-oxotetrahydropyrimidin-1(2H)-yl)-2-methoxyethyl)imidazo[1,2-b]pyridazin-2-yl)-4,4,4-trifluoro-3,3-dimethylbutyl)-1,2,5-oxadiazole-3-carboxamide] | < 0.05
13 | COC[C@H](c1cnn2cc([C@@H](NC(=O)c3nonc3C3CC3)[C@@H](C)O[C@H](C)C(F)(F)F)nc2c1)N1CC(F)(F)CNC1=O [Example 42, 4-Cyclopropyl-N-((1R,2R)-1-(7-((S)-1-(5,5-difluoro-2-oxotetrahydropyrimidin-1(2H)-yl)-2-methoxyethyl)imidazo[1,2-b]pyridazin-2-yl)-2-(((R)-1,1,1-trifluoropropan-2-yl)oxy)propyl)-1,2,5-oxadiazole-3-carboxamide] | < 0.05
14 | COC[C@H](c1cnn2cc([C@@H](NC(=O)c3nonc3C3CC3)[C@@H](C)O[C@@H](C)C(F)(F)F)nc2c1)N1CC(F)(F)CNC1=O [Example 43, 4-Cyclopropyl-N-((1R,2R)-1-(7-((S)-1-(5,5-difluoro-2-oxotetrahydropyrimidin-1(2H)-yl)-2-methoxyethyl)imidazo[1,2-b]pyridazin-2-yl)-2-(((S)-1,1,1-trifluoropropan-2-yl)oxy)propyl)-1,2,5-oxadiazole-3-carboxamide] | < 0.05
15 | CC(C)(C[C@H](NC(=O)c1nonc1C1CC1)c1cn2ncc([C@@H](COC3CC3)N3CC(F)(F)CNC3=O)cc2n1)C(F)(F)F [Example 44, N—((S)-1-(7-((S)-2-Cyclopropoxy-1-(5,5-difluoro-2-oxotetrahydropyrimidin-1(2H)-yl)ethyl)imidazo[1,2-b]pyridazin-2-yl)-4,4,4-trifluoro-3,3-dimethylbutyl)-4-cyclopropyl-1,2,5-oxadiazole-3-carboxamide] | < 0.05
16 | Cc1nonc1C(=O)N[C@H](c1cn2ncc([C@@H](C3CC3)N3CCC4(CC4)NC3=O)cc2n1)C1CCC(F)(F)CC1 [Example 47, N—[(S)-[7-[(R)-Cyclopropyl-(7-oxo-6,8-diazaspiro[2.5]octan-6-yl)methyl]imidazo[1,2-b]pyridazin-2-yl]-(4,4-difluorocyclohexyl)methyl]-4-methyl-1,2,5-oxadiazole-3-carboxamide] | > 0.1
17 | Cc1nonc1C(=O)N[C@@H](CC(C)(C)C(F)(F)F)c1cn2ncc([C@@H](COC3CC3)N3CC(F)(F)CNC3=O)cc2n1 [Example 50, N—((S)-1-(7-((S)-2-Cyclopropoxy-1-(5,5-difluoro-2-oxotetrahydropyrimidin-1(2H)-yl)ethyl)imidazo[1,2-b]pyridazin-2-yl)-4,4,4-trifluoro-3,3-dimethylbutyl)-4-methyl-1,2,5-oxadiazole-3-carboxamide] | < 0.05

Same assay, conditions: IL-17A 5 ng/mL, 24 h, G-CSF by HTRF; average if tested more than once

Row | Molecule | IC50 [µM]
18 | 4-Cyclopropyl-N—((R)-1-(7-((S)-1-(5,5-difluoro-2-oxotetrahydropyrimidin-1(2H)-yl-4,4,6,6-d4)-2-methoxyethyl)imidazo[1,2-b]pyridazin-2-yl)-2-((1,1,1-trifluoro-2-methylpropan-2-yl)oxy)ethyl)-1,2,5-oxadiazole-3-carboxamide [Example 39] | < 0.05
19 | Cc1nonc1C(=O)N[C@H](c1cn2ncc([C@@H](C3CC3)N3CCC(C(F)(F)F)NC3=O)cc2n1)C1CCC(F)(F)CC1 (single isomer, unassigned) [Example 49, N—((S)-(7-((R)-Cyclopropyl((R*)-2-oxo-4-(trifluoromethyl)tetrahydropyrimidin-1(2H)-yl)methyl)imidazo[1,2-b]pyridazin-2-yl)(4,4-difluorocyclohexyl)methyl)-4-methyl-1,2,5-oxadiazole-3-carboxamide] | > 0.1
